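Dose response: 5 concentrations. Exposure: 48 h. Format: 96-well plates. Endpoint: linear interpolation; highest concentration if not reached. The concentration for full growth arrest is given as TGI.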 Where a SMILES comes first, the peptide text is derived from it. [ ]: non-standard residue; d: D form. The star is where a group is joined. NMeF = CN[CH](Cc1ccccc1)C(=O)O; NMeV = CN[CH](C(=O)O)C(C)C; Boc = CC(C)(C)OC(=O)*; OBn = c1ccc(CO*)cc1
Tests used:
Assay in all cases: NCI tumour cell line growth inhibition, 48 h
XF 498 CNS = tested on: XF 498 CNS
DMS 273 small cell lung = tested on: DMS 273 small cell lung
SNB-78 CNS = tested on: SNB-78 CNS
DLD-1 colon = tested on: DLD-1 colon
HOP-18 NSCLC = tested on: HOP-18 NSCLC
SN12K1 renal = tested on: SN12K1 renal
P388 leukemia = tested on: P388 leukemia
P388/ADR leukemia = tested on: P388/ADR leukemia
RXF-631 renal = tested on: RXF-631 renal

SMILES	TGI (XF 498 CNS)	TGI (DMS 273 small cell lung)	TGI (SNB-78 CNS)	TGI (DLD-1 colon)	TGI (HOP-18 NSCLC)	TGI (SN12K1 renal)	TGI (P388 leukemia)	TGI (P388/ADR leukemia)	TGI (RXF-631 renal)
CC(C)C(NC(=O)OC(C)(C)C)C(=O)N(C)C(Cc1ccccc1)C(=O)N(C)C(C(=O)N(C)C(C(=O)OCc1ccccc1)C(C)C)C(C)C (stereo not given) (Boc-V[NMeF][NMeV][NMeV]-OBn; configuration not given here)	82.4 µM	> 100 µM	–	–	–	–	–	–	–
CSC(=S)N(C)NC(=O)c1cccc(C(=O)NN(C)C(=S)SC)n1	–	54.1 µM	> 100 µM	> 100 µM	> 100 µM	–	–	–	–
Cc1cc(=O)c2c(O)c3c(O)cc(O)c4c5c(O)cc(O)c6c(O)c7c(=O)cc(C)c8c1c2c(c34)c(c65)c78	> 100 µM	> 100 µM	> 77.3 µM	47.5 µM	> 100 µM	> 100 µM	72.8 µM	> 100 µM	–
CN(C)c1nc(N(C)C)nc(N(C)CN(C)c2nc(N(C)C)nc(N(C)C)n2)n1	–	> 100 µM	> 100 µM	> 100 µM	> 100 µM	–	–	–	–
COc1ccc(C2C(C(=O)O)=C(COC(C)=O)Oc3cc4c(cc32)OCO4)cc1 (stereo not given)	> 100 µM	> 100 µM	> 100 µM	> 100 µM	> 100 µM	–	–	–	> 100 µM
CC(C)C(/C=C/c1ccccc1)=N\NC(=O)N/N=C(/C=C/c1ccccc1)C(C)C	77.4 µM	55.1 µM	> 100 µM	> 100 µM	–	–	–	–	–
CC(=O)Nc1ccc(-c2nnc(SCC(=O)Nc3ccccc3[N+](=O)[O-])o2)cc1	–	> 100 µM	> 100 µM	> 100 µM	> 100 µM	–	–	–	–
O=C(c1ccc(Cl)cc1)N(C(=S)N1CCN(c2ccccn2)CC1)c1ccccc1	–	> 100 µM	> 100 µM	> 100 µM	> 100 µM	–	–	–	–
C[C@]12CCC(=O)C=C1CC[C@@H]1[C@@H]2C(=O)C[C@@]2(C)[C@H]1CC[C@]2(O)C(=O)CO	> 100 µM	> 100 µM	–	> 100 µM	> 100 µM	–	–	–	–

Reference: PubChem BioAssay (NCI)
